One assay concerns cell lines or patient-derived xenografts from patients with CRLF2-rearranged B-ALL.
Experiment: not given
The conditions noted are these: cited from earlier work.
Sequence of JAK2 (O60674 whole entry): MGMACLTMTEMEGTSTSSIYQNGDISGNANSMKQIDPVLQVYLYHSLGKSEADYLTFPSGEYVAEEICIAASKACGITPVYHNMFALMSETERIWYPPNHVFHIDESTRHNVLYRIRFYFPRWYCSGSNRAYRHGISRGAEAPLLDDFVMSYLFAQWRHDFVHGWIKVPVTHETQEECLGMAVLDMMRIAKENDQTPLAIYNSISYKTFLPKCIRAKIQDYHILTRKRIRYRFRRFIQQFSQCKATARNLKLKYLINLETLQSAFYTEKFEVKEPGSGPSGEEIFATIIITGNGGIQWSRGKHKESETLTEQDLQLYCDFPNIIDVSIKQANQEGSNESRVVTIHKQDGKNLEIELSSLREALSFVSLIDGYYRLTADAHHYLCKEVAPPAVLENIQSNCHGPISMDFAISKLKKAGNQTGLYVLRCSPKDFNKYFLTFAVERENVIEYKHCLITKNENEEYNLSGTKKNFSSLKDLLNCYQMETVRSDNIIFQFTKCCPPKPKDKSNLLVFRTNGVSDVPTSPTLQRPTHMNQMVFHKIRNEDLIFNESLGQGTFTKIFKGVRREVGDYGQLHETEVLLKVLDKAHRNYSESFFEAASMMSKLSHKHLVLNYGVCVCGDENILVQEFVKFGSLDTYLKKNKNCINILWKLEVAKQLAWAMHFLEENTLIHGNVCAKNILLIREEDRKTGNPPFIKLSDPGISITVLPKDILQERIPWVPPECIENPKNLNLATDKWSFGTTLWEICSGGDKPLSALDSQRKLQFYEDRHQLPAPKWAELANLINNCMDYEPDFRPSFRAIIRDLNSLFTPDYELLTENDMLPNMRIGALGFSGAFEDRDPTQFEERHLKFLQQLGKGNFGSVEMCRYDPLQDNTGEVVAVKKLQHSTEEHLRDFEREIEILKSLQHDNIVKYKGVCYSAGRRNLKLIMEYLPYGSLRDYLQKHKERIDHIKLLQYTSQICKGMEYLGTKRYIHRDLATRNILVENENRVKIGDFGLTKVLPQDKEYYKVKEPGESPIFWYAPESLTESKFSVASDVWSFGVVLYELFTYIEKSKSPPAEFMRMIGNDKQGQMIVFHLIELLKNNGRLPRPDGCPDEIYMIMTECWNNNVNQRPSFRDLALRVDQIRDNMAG
On to `N#CC[C@H](C1CCCC1)n1cc(-c2ncnc3[nH]ccc23)cn1` [Ruxolitinib], for which the 50% inhibitory concentration (IC50) is above 20 µM.

Another assay concerns the target JAK2 (Homo sapiens (Human), UniProt O60674). The assay is described as follows: JAK2 Z-Lyte biochemical assay.
Conditions: not given
How it is done: Example 3. JAK2 Z-Lyte Biochemical Assay of the Compounds of the Present Disclosure
The JAK2 Z-Lyte biochemical assay was performed according to manufacturer's instructions (Life Technologies).
`CC(=O)Nc1cc(Oc2ccc3nc(Nc4ccc(F)cc4F)n(C)c3c2)ccn1` [Compound I-1, N-(4-(2-(2,4-difluorophenylamino)-1-methyl-1H-benzo[d]imidazol-6-yloxy)pyridin-2-yl)acetamide] gave a 50% inhibitory concentration (IC50) of 3.08 µM.
On the same count and under the same terms, the result for `CCN1CCN(Cc2cc(Nc3nc4ccc(Oc5ccnc(NC(C)=O)c5)cc4n3C)cc(C(F)(F)F)c2)CC1` [Compound I-3, N-(4-(2-(3-((4-ethylpiperazin-1-yl)methyl)-5-(trifluoromethyl)phenylamino)-1-methyl-1H-benzo[d]imidazol-6-yloxy)pyridin-2-yl)acetamide] reads 0.957 µM; that for `CC(=O)Nc1cc(Oc2ccc3nc(Nc4ccc(F)cc4F)[nH]c3c2C)ccn1` [Compound I-4, N-(4-(2-(2,4-difluorophenylamino)-4-methyl-1H-benzo[d]imidazol-5-yloxy)pyridin-2-yl)acetamide], 0.449 µM; that for `CCN1CCN(Cc2ccc(Nc3nc4ccc(Oc5ccnc(NC(C)=O)c5)c(C)c4[nH]3)cc2C(F)(F)F)CC1` [Compound I-5, N-(4-(2-(4-((4-ethylpiperazin-1-yl)methyl)-3-(trifluoromethyl)phenylamino)-4-methyl-1H-benzo[d]imidazol-5-yloxy)pyridin-2-yl)acetamide], 1.05 µM.
Same read-out and setting: the result for `CCN1CCN(Cc2ccc(Nc3nc4cc(Oc5ccnc(NC(C)=O)c5)ccc4n3C)cc2C(F)(F)F)CC1` [Compound I-7, N-(4-(2-(4-((4-ethylpiperazin-1-yl)methyl)-3-(trifluoromethyl)phenylamino)-1-methyl-1H-benzo[d]imidazol-5-yloxy)pyridin-2-yl)acetamide] reads 8.53 µM; that for `CC(=O)Nc1cc(Oc2ccc3c(c2)nc(Nc2ccc(F)cc2F)n3C)ccn1` [Compound I-8, N-(4-(2-(2,4-difluorophenylamino)-1-methyl-1H-benzo[d]imidazol-5-yloxy)pyridin-2-yl)acetamide], 0.0925 µM; that for `CCN1CCN(Cc2cc(Nc3nc4cc(Oc5ccnc(NC(C)=O)c5)ccc4n3C)cc(C(F)(F)F)c2)CC1` [Compound I-9, N-(4-(2-(3-((4-ethylpiperazin-1-yl)methyl)-5-(trifluoromethyl)phenylamino)-1-methyl-1H-benzo[d]imidazol-5-yloxy)pyridin-2-yl)acetamide], 2.14 µM.
For `CC(=O)Nc1cc(Oc2ncc3[nH]c(Nc4ccc(F)cc4F)nc3n2)ccn1` [Compound I-10, N-(4-(8-(2,4-difluorophenylamino)-7H-purin-2-yloxy)pyridin-2-yl)acetamide], the IC50 is above 10 µM.
On the same count and under the same terms, the result for `CC(=O)Nc1cc(Oc2ccc3nc(Nc4ccc(F)cc4F)nn3c2)ccn1` [Compound I-11, N-(4-(2-(2,4-difluorophenylamino)-[1,2,4]triazolo[1,5-a]pyridin-6-yloxy)pyridin-2-yl)acetamide] reads above 10 µM; that for `CC(=O)Nc1cc(Oc2ccc3nc(Nc4ccc(F)cc4F)n(C)c3n2)ccn1` [Compound I-12, N-(4-(2-(2,4-difluorophenylamino)-3-methyl-3H-imidazo[4,5-b]pyridin-5-yloxy)pyridin-2-yl)acetamide], above 10 µM.
`COC(=O)c1cc(Oc2ccc3nc(Nc4ccc(F)cc4F)n(C)c3n2)ccn1` [Compound I-13, Methyl 4-((2-((2,4-difluorophenyl)amino)-3-methyl-3H-imidazo[4,5-b]pyridin-5-yl)oxy) picolinate]: the IC50 is above 10 µM.
Same read-out and setting: the result for `Cn1c(Nc2ccc(F)cc2F)nc2ccc(Oc3ccnc(C(=O)O)c3)nc21` [Compound I-14, 4-((2-((2,4-difluorophenyl)amino)-3-methyl-3H-imidazo[4,5-b]pyridin-5-yl)oxy)picolinic acid] reads above 10 µM; that for `CCN1CCN(Cc2ccc(Nc3nc4ccc(Oc5ccnc(NC(C)=O)c5)nc4n3C)cc2C(F)(F)F)CC1` [Compound I-15, N-(4-((2-((4-((4-ethylpiperazin-1-yl)methyl)-3-(trifluoromethyl)phenyl)amino)-3-methyl-3H-imidazo[4,5-b]pyridin-5-yl)oxy)pyridin-2-yl)acetamide], 1.34 µM.
Still for that read-out and setting: as for `CCN1CCN(Cc2ccc(Nc3nc4nc(Oc5ccnc(NC(C)=O)c5)ncc4[nH]3)cc2C(F)(F)F)CC1` [Compound I-16, N-(4-((8-((4-((4-ethylpiperazin-1-yl)methyl)-3-(trifluoromethyl)phenyl)amino)-7H-purin-2-yl)oxy)pyridin-2-yl)acetamide], the figure is above 10 µM; as for `CCN1CCN(Cc2ccc(Nc3nc4ccc(Oc5ccnc(NC(=O)C6CCOCC6)c5)cc4n3C)cc2C(F)(F)F)CC1` [Compound I-18, N-(4-(2-(4-((4-ethylpiperazin-1-yl)methyl)-3-(trifluoromethyl)phenylamino)-3-methyl-3H-benzo[d]imidazol-5-yloxy)pyridin-2-yl)-tetrahydro-2H-pyran-4-carboxamide], 6 µM.
The same measure, in the same setting: the result for `CCN1CCN(Cc2ccc(Nc3nc4ccc(Oc5ccnc(NC(=O)C6CCN(C)CC6)c5)cc4n3C)cc2C(F)(F)F)CC1` [Compound I-19, N-(4-(2-(4-((4-ethylpiperazin-1-yl)methyl)-3-(trifluoromethyl)phenylamino)-3-methyl-3H-benzo[d]imidazol-5-yloxy)pyridin-2-yl)-1-methylpiperidine-4-carboxamide] reads 8.03 µM; that for `CCN1CCN(Cc2ccc(Nc3nc4ccc(Oc5ccnc(N)c5)cc4n3C)cc2C(F)(F)F)CC1` [Compound I-20, 6-(2-aminopyridin-4-yloxy)-N-(4-((4-ethylpiperazin-1-yl)methyl)-3-(trifluoromethyl)phenyl)-1-methyl-1H-benzo[d]imidazol-2-amine], 1.95 µM.
For `CCN1CCN(Cc2ccc(Nc3nc4ccc(Oc5ccnc(NC(=O)CCN(C)C)c5)cc4n3C)cc2C(F)(F)F)CC1` [Compound I-21, 3-(dimethylamino)-N-(4-(2-(4-((4-ethylpiperazin-1-yl)methyl)-3-(trifluoromethyl)phenylamino)-3-methyl-3H-benzo[d]imidazol-5-yloxy)pyridin-2-yl)propanamide], it took 4.93 µM to reach half-maximal inhibition (IC50).
The same measure, in the same setting: as for `CCN1CCN(Cc2ccc(Nc3nc4ccc(Oc5ccc(O)nc5)cc4n3C)cc2C(F)(F)F)CC1` [Compound I-22, 5-((2-((4-((4-ethylpiperazin-1-yl)methyl)-3-(trifluoromethyl)phenyl)amino)-1-methyl-1H-benzo[d]imidazol-6-yl)oxy)pyridin-2(1H)-one], the figure is above 10 µM; as for `Cn1c(Nc2ccc(F)cc2F)nc2ccc(Oc3ccc(O)nc3)cc21` [Compound I-23], above 10 µM.

These data come from patent US12522583B2, “Benzimidazole derivatives and aza-benzimidazole derivatives as Janus kinase 2 inhibitors and uses thereof” (Dana-Farber Cancer Institute, Inc., priority 2018, dated 2026).
